US6458820B1, “Method for preventing or the progression of neuronal damage with pramipexole as a neuroprotective agent” (Pharmacia & Upjohn Company, priority 1994, dated 2002)
“Also recorded” adds a separate entry of the source. Where a name gives a salt, the structure may show the parent alone.

Legend:
[1] = tested on: nigrostriatal dopamine neurons
Procedure: We examined histologically retrograde degeneration of the dopaminergic nigrostriatal (NS) tract over 28 days in gerbils subjected to a 10-minute period of forebrain ischemia via bilateral carotid occlusion.
The administration of pramipexole was via an initial dose of 1 mg/kg PO 60 minutes after ischemia and again at the end of day 1 followed by twice daily dosing for the next 26 days.

[2] = tested on: cerebellar granular cells; assay: L-dopa toxicity in primary cultures of cerebellar granular cells, viability by 14C-aminoisobutyric acid uptake; format: cell-based, Sprague Dawley rats; settings: for % of control* (viability, radioactivity): mean of triplicates +/- S.D.
Procedure: Primary cultures of cerebellar granular cells were prepared from 8-day-old Sprague Dawley rats (Charles River, Portage, Mich.) as described previously (1). […] Glial cell proliferation was prevented by adding cytosine-arabinofuranoside-monophosphate (Sigma, St. […] Experiments were started after cells were 8 days in vitro (8 DIV). Cells were washed with two ml of serum free growth medium. Concentrations of 100X stock solutions of PPX and the (+) enantiomer in serum free growth medium were made. These were delivered to cells by adding 20 ul to cells in growth medium per well. […] Cells were incubated under the above conditions for 24 hrs. […] Cells were solubilized, following a wash, with 0.5% Triton X-100. The solubilized cells were then counted for radioactivity on a scintillation counter. Data was expressed as the mean of triplicates ±S.D. for each point.

[3] = tested on: gerbil model of global cerebral ischemia; settings: in vivo; cited from earlier work
[4] = tested on: rat model of cerebral infarction; settings: administered before the event; cited from earlier work
dopaminergic receptors = assay: Battery of binding assays, dopaminergic receptors

CCCN[C@H]1CCc2nc(N)sc2C1 [Pramipexole, (−)-enantiomer of 2-amino-6-n-propylamino-4,5,6,7-tetrahydrobenzothiazole-dihydrochloride]
attenuation of 28-day post-ischemic loss of NS DA neurons ([1]; Example 1, 1 mg/kg PO BID beginning at 1 hr after insult, p<0.01 vs vehicle-treated): 36% | increase in nigrostriatal dopamine neurons compared to vehicle ([1]; Example 2, twice daily dose of 0.3 mg/kg, threshold effect): 14% | improvement in 28 day post-ischemic dopamine neuronal survival ([1]; Example 2, twice daily dose of 1 mg/kg PO, p<0.0001 vs vehicle-treated): 38% | % of control* (viability, radioactivity) ([2]; 1 nM compound, 100 uM L-dopa, 24 hrs): 30.0 +/− 6.5 % of control | % of control* (viability, radioactivity) ([2]; 10 nM compound, 100 uM L-dopa, 24 hrs): 39.2 +/− 9.4 % of control | % of control* (viability, radioactivity) ([2]; 100 nM compound, 100 uM L-dopa, 24 hrs): 64.8 +/− 4.7 % of control | % of control* (viability, radioactivity) ([2]; 300 nM compound, 100 uM L-dopa, 24 hrs): 76.2 +/− 7.3 % of control | % of control* (viability, radioactivity) ([2]; 1000 nM compound, 100 uM L-dopa, 24 hrs): 65.5 +/− 14.8 % of control | % of control* (viability, radioactivity) ([2]; 3000 nM compound, 100 uM L-dopa, 24 hrs): 84.9 +/− 0.6 % of control | % of control* (viability, radioactivity) ([2]; 10000 nM compound, 100 uM L-dopa, 24 hrs): 90.0 +/− 11.5 % of control | EC50 ([2]; Rattus norvegicus, cerebellar granule cells in culture, L-dopa, read-out: EC50 for blocking L-dopa toxicity): 300 to 1000 nM

c1cnc(N2CCN(Cc3ccc4c(c3)OCO4)CC2)nc1 [Piribedil]
functional and biochemical parameters [3]: have an effect

CCN(CC)C(=O)N[C@H]1C=C2c3cccc4[nH]cc(c34)C[C@H]2N(C)C1 [Lisuride]
brain edema [4]: reduced | survival time [4]: prolonged

CCCNC1CCc2nc(N)sc2C1.Cl.Cl (single isomer, unassigned; (+)) [(+) enantiomer, (+)-enantiomer of 2-amino-6-n-propylamino-4,5,6,7-tetrahydrobenzothiazole dihydrochloride]
binding activity (in words) (serotonergic receptors): inactive | binding activity (in words) (dopaminergic receptors): less active | viability measurements versus control cells (in words) ([2]; 10 uM compound, L-dopa treated cells): equal to control cells not exposed to L-dopa | neuroprotection against L-dopa toxicity (in words) ([2]; cerebellar granule cells in culture, dihydrochloride): blocked L-dopa toxicity; also recorded: equally as potent and effective compared to pramipexole | binding activity (in words) (adrenergic receptors): inactive

N[C@@H](Cc1ccc(O)c(O)c1)C(=O)O [L-dopa, reference compound]
Toxicity of L-dopa ([2]; 100 uM L-dopa, 24 hrs): 64.8%
